Assay results from PMC11653366, “The conformation of the nSrc specificity-determining loop in the Src SH3 domain is modulated by a WX conserved sequence motif found in SH3 domains” (Frontiers in Molecular Biosciences, 2024).
Values joined by “and” are separate entries in the source; they are usually repeats but may differ in a detail not shown here. Equal entries are not always repeated. Where two headings read alike, the source gives them in different places. Peptide text beside a SMILES is read from it. * marks the point of attachment. FITC = O=C1OC2(c3ccc(O)cc3Oc3cc(O)ccc32)c2ccc(NC(=S)*)cc21; Ahx = NCCCCCC(=O)O

Tests used:
SrcAbl SH3 = target: T1, SrcAbl SH3 (Homo sapiens, UniProt P12931, D120E/E100D/E118N/E96V/R98S/S97A/T101N/T117H/T99G); test: Fluorescence anisotropy binding, SrcAbl SH3 chimera (Src SH3 with Abl RT and nSrc loops); details: 30 nM fluorescent peptide, running buffer + 0.1 mg/mL BSA + 0.5 mM Thesit, average of triplicate experiments
T1 construct: His6-SUMO (N, cleaved yes); made in house; host or cells: Escherichia coli BL21 DE3

AblSrc SH3 = target: T2, AblSrc SH3 (Homo sapiens, UniProt P00519, A74S/D77E/E98D/G76T/H95T/N78T/N96E/S75R/V73E); test: Fluorescence anisotropy binding, AblSrc SH3 chimera (Abl SH3 with Src RT and nSrc loops); details: 30 nM fluorescent peptide, running buffer + 0.1 mg/mL BSA + 0.5 mM Thesit, average of triplicate experiments, >1,000 = undetectable
T2 construct: His6-SUMO (N, cleaved yes); made in house; host or cells: Escherichia coli BL21 DE3
T2 sequence (P00519 61-121 V73E/A74S/S75R/G76T/D77E/N78T/H95T/N96E/E98D limits assumed): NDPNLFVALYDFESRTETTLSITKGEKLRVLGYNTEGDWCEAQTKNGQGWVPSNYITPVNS
Text: (§1) Therefore, we wanted to engineer chimeric proteins to test if these loops alone could mediate specificity switching. In our chimeras, we swapped both the RT (sequence: ^96ESRTET^101) and nSrc (^117TEGD^120) loops of Src with the RT (^73VASGDN^78) and nSrc (^95HNGE^98) loop sequences of Abl, and vice versa in each SH3 domain. We termed the resulting proteins, SrcAbl and AblSrc, where the subscript indicates the sequence identity of both the RT and nSrc loops.
(§2) Sequences corresponding to the Abl and Src SH3 (residues 84-145, UniProt ID SRC_HUMAN) domains were used for the wild-type SH3 domains. All proteins were expressed as His6-SUMO fusion proteins using the pET28a (+) plasmid (Genscript). […]
(§3) Briefly, plasmids were transformed into BL21 DE3 chemically competent Escherichia coli cells. […] SDS-PAGE was used to assess protein purity and the absorbance at λ = 280 nm with the calculated extinction coefficient (s), by Expasy ProtParam, was used to calculate protein concentration ([Wilkins et al., 1999]).
(§4) Fluorescence anisotropy assays were performed using a BioTek Synergy H1 plate reader, as previously described [([Tahti et al., 2023]; [Gao et al., 2020]; [Wofford et al., 2021]; [Valgardson et al., 2019])]. […] Determined K D values were the average calculated from triplicate experiments ([Cushing et al., 2008]). […]

W122C SrcAbl SH3 = target: T3, W122C SrcAbl SH3 (Homo sapiens, UniProt P12931, D120E/E100D/E118N/E96V/R98S/S97A/T101N/T117H/T99G/W122C); test: Fluorescence anisotropy binding, W122C SrcAbl SH3; details: 30 nM fluorescent peptide, running buffer + 0.1 mg/mL BSA + 0.5 mM Thesit, average of triplicate experiments
T3 construct: His6-SUMO (N, cleaved yes); made in house; host or cells: Escherichia coli BL21 DE3
Text: as §1, §2, §3, §4

C100W Abl SH3 = target: T4, C100W Abl SH3 (Homo sapiens, UniProt P00519, C100W); test: Fluorescence anisotropy binding, C100W Abl SH3; details: 30 nM fluorescent peptide, running buffer + 0.1 mg/mL BSA + 0.5 mM Thesit, average of triplicate experiments, >1,000 = undetectable
T4 construct: His6-SUMO (N, cleaved yes); made in house; host or cells: Escherichia coli BL21 DE3
Text: (§5) Sequences corresponding to the Abl and Src SH3 (residues 84-145, UniProt ID SRC_HUMAN) domains were used for the wild-type SH3 domains. All proteins were expressed as His6-SUMO fusion proteins using the pET28a (+) plasmid (Genscript). Expression and purification protocols were similar to those used previously for other SLiM-binding domains [([Tahti et al., 2023]; [Gao et al., 2020]; [Wofford et al., 2021])]. All sequences used are in the Supporting Information.
(§6) Briefly, plasmids were transformed into BL21 DE3 chemically competent Escherichia coli cells. Selected colonies were grown in Terrific Broth (TB) at 37°C with shaking at 210 rpm. Once an optical density (OD) of 0.6–0.8 at λ = 600 nm was reached, protein expression was induced by the addition of 0.15 mM isopropyl-β-D-1-thiogalactopyranoside (IPTG) for 16–18 h at 18°C. […] SDS-PAGE was used to assess protein purity and the absorbance at λ = 280 nm with the calculated extinction coefficient (s), by Expasy ProtParam, was used to calculate protein concentration ([Wilkins et al., 1999]).
as §4

Abl SH3 [1] = target: T5, Abl SH3 (Homo sapiens, UniProt P00519); test: Fluorescence anisotropy binding, Abl SH3; details: 30 nM fluorescent peptide, running buffer + 0.1 mg/mL BSA + 0.5 mM Thesit, average of triplicate experiments
T5 construct: His6-SUMO (N, cleaved yes); made in house; host or cells: Escherichia coli BL21 DE3
Text: as §5, §6, §4

Src SH3 = target: T6, Src SH3 (Homo sapiens, UniProt P12931); test: Fluorescence anisotropy binding, Src SH3; details: 30 nM fluorescent peptide, running buffer + 0.1 mg/mL BSA + 0.5 mM Thesit, average of triplicate experiments, >1,000 = no binding
T6 construct: His6-SUMO (N, cleaved yes); made in house; host or cells: Escherichia coli BL21 DE3
Description: (§7) Fluorescence anisotropy assays were performed using a BioTek Synergy H1 plate reader, as previously described [([Tahti et al., 2023]; [Gao et al., 2020]; [Wofford et al., 2021]; [Valgardson et al., 2019])]. Solution conditions included running buffer plus 0.1 mg/mL bovine serine albumin (BSA) and 0.5 mM Thesit, with 30 nM fluorescent peptide. Determined K D values were the average calculated from triplicate experiments ([Cushing et al., 2008]). K d values were determined as previously, and as the midpoint between the anisotropy resulting from the free reporter peptide and SH3-peptide complex [([Cushing et al., 2008]; [Vouilleme et al., 2010]; [Amacher et al., 2013]; [Amacher et al., 2014])].

W122C Src SH3 = target: T7, W122C Src SH3 (Homo sapiens, UniProt P12931, W122C); test: Fluorescence anisotropy binding, W122C Src SH3; details: 30 nM fluorescent peptide, running buffer + 0.1 mg/mL BSA + 0.5 mM Thesit, average of triplicate experiments
T7 construct: His6-SUMO (N, cleaved yes); made in house; host or cells: Escherichia coli BL21 DE3
Description: as §7

Fyn SH3 = target: Fyn SH3; parameters: method as in Pisabarro and Serrano, 1996; Pisabarro et al., 1998; details: Fyn SH3, previously published; ref Pisabarro and Serrano, 1996; Pisabarro et al., 1998; read-out: affinity (K D); cited from earlier work
Abl SH3 [2] = target: T5, Abl SH3; parameters: method as in Pisabarro and Serrano, 1996; Pisabarro et al., 1998; details: Abl SH3, previously published; ref Pisabarro and Serrano, 1996; Pisabarro et al., 1998; read-out: affinity (K D); cited from earlier work

T5 sequence (P00519 61-121 limits assumed): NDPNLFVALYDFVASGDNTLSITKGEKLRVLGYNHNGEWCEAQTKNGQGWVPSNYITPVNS
T4 sequence (P00519 61-121 C100W limits assumed): as the sequence (P00519 61-121 limits assumed) above, with C40W counted along it

Compound	Kd (SrcAbl SH3) [µM]	Kd (AblSrc SH3) [µM]	Kd (W122C SrcAbl SH3) [µM]	Kd (C100W Abl SH3) [µM]	Kd (Abl SH3 [1]) [µM]	Kd (Src SH3) [µM]	Kd (W122C Src SH3) [µM]	Kd (Fyn SH3)	Kd (Abl SH3 [2]) [µM]
CC(C)C[C@H](NC(=O)CCCCCNC(=S)Nc1ccc2c(c1)C(=O)OC21c2ccc(O)cc2Oc2cc(O)ccc21)C(=O)N[C@@H](C)C(=O)N[C@@H](CO)C(=O)N[C@@H](CCCNC(=N)N)C(=O)N1CCC[C@H]1C(=O)N[C@@H](CC(C)C)C(=O)N1CCC[C@H]1C(=O)N[C@@H](CC(C)C)C(=O)N[C@@H](CC(C)C)C(=O)N1CCC[C@H]1C(=O)O [F*-PLLP]	140 ± 20	> 1000	> 1000	> 1000	> 1000	–	–	–	–
C[C@H](NC(=O)CCCCCNC(=S)Nc1ccc2c(c1)C(=O)OC21c2ccc(O)cc2Oc2cc(O)ccc21)C(=O)N1CCC[C@H]1C(=O)N[C@H](C(=O)N[C@@H](Cc1ccc(O)cc1)C(=O)N[C@@H](CO)C(=O)N1CCC[C@H]1C(=O)N1CCC[C@H]1C(=O)N1CCC[C@H]1C(=O)N1CCC[C@H]1C(=O)N1CCC[C@H]1C(=O)O)[C@@H](C)O [F*-p40] ({FITC-Ahx}-APTYSPPPPP-OH)	130 ± 40	210 ± 30	450 ± 190	55 ± 20	3.1 ± 0.4	> 1000	> 1000	–	–
C[C@H](N)C(=O)N1CCC[C@H]1C(=O)N[C@H](C(=O)N[C@@H](Cc1ccc(O)cc1)C(=O)N[C@@H](CO)C(=O)N1CCC[C@H]1C(=O)N1CCC[C@H]1C(=O)N1CCC[C@H]1C(=O)N1CCC[C@H]1C(=O)N1CCC[C@H]1C(=O)O)[C@@H](C)O [p40] (H-APTYSPPPPP-OH; N-terminus and C-terminus assumed)	–	–	–	–	–	> 1000	–	472 µM and 470 µM	–
RAPTMPPPLPP [initial ligand, derived from the 3BP1 protein]	–	–	–	–	–	–	–	30 µM	30
